Data as given in BindingDB's records for patent US8987287 (Purdue Pharma, 2015).

How the values were obtained:
[1] = molecular target: Mu-type opioid receptor (Homo sapiens, UniProt P35372); assay: Radioligand Dose-Displacement Binding Assay; conditions: pH 7.4; 50 °C
Method: mu-Opioid Receptor Binding Assay Procedures: Radioligand dose-displacement binding assays for mu-opioid receptors used 0.3 nM [3H]-diprenorphine (Perkin Elmer, Shelton, Conn.), with […]/well in a final volume of 500 ul binding buffer (10 mM MgCl2, 1 mM EDTA, 5% DMSO, 50 mM HEPES, pH 7.4). Reactions were carried out in the absence or presence of increasing concentrations of unlabeled naloxone. All reactions were conducted in 96-deep well polypropylene plates for 2 hours at room temperature. Binding reactions were terminated by rapid filtration onto 96-well Unifilter GF/C filter plates (Perkin Elmer, Shelton, Conn.), presoaked in 0.5% polyethylenimine using a 96-well tissue harvester (Perkin Elmer, Shelton, Conn.) followed by performing three filtration washes with 500 ul of ice-cold binding buffer. Filter plates were subsequently dried at 50 C. for 2-3 hours. BetaScint scintillation cocktail (Perkin Elmer, Shelton, Conn.) was added (50 ul/well).

[2] = molecular target: Kappa-type opioid receptor (Homo sapiens, UniProt P41145); assay: Radioligand Dose-Displacement Binding Assay; conditions: pH 7.4; 25 °C
Kappa-type opioid receptor, sequence (P41145 whole entry): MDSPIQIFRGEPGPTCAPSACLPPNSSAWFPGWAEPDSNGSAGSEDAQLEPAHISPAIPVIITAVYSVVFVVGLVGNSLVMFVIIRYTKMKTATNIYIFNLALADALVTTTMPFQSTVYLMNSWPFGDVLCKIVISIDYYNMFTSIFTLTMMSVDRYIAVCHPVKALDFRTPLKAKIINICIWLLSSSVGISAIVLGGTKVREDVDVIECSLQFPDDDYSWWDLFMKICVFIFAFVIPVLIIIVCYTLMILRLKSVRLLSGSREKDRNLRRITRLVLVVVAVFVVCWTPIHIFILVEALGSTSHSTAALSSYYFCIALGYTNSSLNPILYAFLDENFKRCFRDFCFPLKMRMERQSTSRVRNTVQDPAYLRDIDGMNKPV
Method: Radioligand dose displacement assays used 0.4 nM [3H]-U69,593 (GE Healthcare, Piscataway, N.J.; 40 Ci/mmole) with 15 ug membrane protein (recombinant kippa opioid receptor expressed in HEK 293 cells; in-house prep) in a final volume of 200 ul binding buffer (5% DMSO, 50 mM Trizma base, pH 7.4). Non-specific binding was determined in the presence of 10 uM unlabeled naloxone or U69,593. All reactions were performed in 96-well polypropylene plates for 1 hour at a temperature of about 25 C. Binding reactions were terminated by rapid filtration onto 96-well Unifilter GF/C filter plates (Perkin Elmer, Shelton, Conn.) presoaked in 0.5% polyethylenimine (Sigma). Harvesting was performed using a 96-well tissue harvester (Perkin Elmer, Shelton, Conn.) followed by five filtration washes with 200 ul ice-cold binding buffer. Filter plates were subsequently dried at 50 C. for 1-2 hours. Fifty ul/well scintillation cocktail (Perkin Elmer, Shelton, Conn.) was added.

Mu-type opioid receptor, sequence (P35372 whole entry): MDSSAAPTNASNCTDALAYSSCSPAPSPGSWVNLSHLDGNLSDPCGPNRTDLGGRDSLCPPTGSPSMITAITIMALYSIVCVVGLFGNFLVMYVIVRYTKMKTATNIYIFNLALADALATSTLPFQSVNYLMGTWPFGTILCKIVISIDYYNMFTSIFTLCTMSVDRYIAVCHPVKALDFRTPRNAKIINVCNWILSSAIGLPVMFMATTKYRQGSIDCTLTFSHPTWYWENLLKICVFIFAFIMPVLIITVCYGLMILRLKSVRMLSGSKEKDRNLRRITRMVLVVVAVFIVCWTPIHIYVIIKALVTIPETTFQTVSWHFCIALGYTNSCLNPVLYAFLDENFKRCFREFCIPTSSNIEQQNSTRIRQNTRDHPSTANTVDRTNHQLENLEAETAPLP

COc1ccc2c(c1)[C@]13CCN(C)[C@H](C2)[C@]1(O)CC[C@@]1(C3)NC(=O)NC1=O [US8987287, 9]
Ki [1]: 3.88 µM | Ki [2]: > 20 µM
